From ChEMBL document CHEMBL5137070, “N-2-(Phenylamino) Benzamide Derivatives as Dual Inhibitors of COX-2 and Topo I Deter Gastrointestinal Cancers via Targeting Inflammation and Tumor Progression” (J Med Chem, 2022)
pIC50: −log10 of the molar value. Activity calls are given as the source filed them. The calls are words filed in the database; no cut-off is given here.

What was measured:
[1] = system: RAW264.7; test: Inhibition of LPS induced NO production in mouse RAW264.7 cells at 1.1 uM incubated for 1 hrs followed by LPS stimulation and measured after 24 hrs by Griess reagent based assay; type: functional, cell-based; conditions: time 25.0 hrs
[2] = biological target: T1, Nuclear factor NF-kappa-B complex (Homo sapiens) (UniProt Q00653+P19838+Q04206); test: Inhibition of NF-kappaB activation in human RKO cells assessed as downregulation of NF-kappaB phosphorylation at 10 uM for 48 hrs by DAPI staining based immunofluorescence assay; type: cell-based
[3] = biological target: T1, Nuclear factor NF-kappa-B complex (Homo sapiens); test: Inhibition of NF-kappaB activation in human HGC-27 cells assessed as downregulation of NF-kappaB phosphorylation at 10 uM for 48 hrs by DAPI staining based immunofluorescence assay; type: cell-based
[4] = system: RAW264.7; test: Antiinflammatory activity against LPS-stimulated mouse RAW264.7 cells assessed decrease in IL-1beta release at 1.1 uM incubated for 1 hrs followed by LPS stimulation and measured after 24 hrs by ELISA; type: functional, cell-based; conditions: time 25.0 hrs
[5] = system: HGC-27; test: Effect on cell morphology in human HGC-27 cells assessed as condensed morphology at 10 uM incubated for 48 hrs by giemsa staining based microscopic analysis; type: functional
[6] = system: HT-29; test: Antiproliferative activity against human HT-29 cells assessed as reduction in cell proliferation incubated for 48 hrs by MTT assay; type: functional, cell-based; conditions: HT-29, 48 h
[7] = system: RAW264.7; test: Antiinflammatory activity in mouse RAW264.7 cells assessed as reduction in LPS-induced COX-2 expression at 6.6 uM incubated for 1 hrs followed by LPS stimulation and measured after 24 hrs by western blot analysis; type: functional, cell-based; conditions: time 25.0 hrs
[8] = system: RKO; test: Anti-metastasis activity against human RKO cells assessed as reduction in MMP-9 expression level at 3.3 to 10 uM for 24 hrs by western blot analysis; type: functional, cell-based; conditions: dose 3.3-10 µM
[9] = system: HGC-27; test: Induction of mitochondrial membrane loss in human HGC-27 at 1.1 to 10 uM and measured after 36 hrs by TMRE dye based flow cytometry; type: functional, cell-based; conditions: dose 1.1-10 µM, DDE = dose-dependent effect
[10] = biological target: T2, DNA topoisomerase 1 (Homo sapiens) (UniProt P11387); test: Inhibition of human topoisomerase I assessed as DNA unwinding using DNA pBR322 as substrate at 2 uM incubated for 30 mins by ethidium bromide staining based agarose gel electrophoresis
T2 sequence (whole entry): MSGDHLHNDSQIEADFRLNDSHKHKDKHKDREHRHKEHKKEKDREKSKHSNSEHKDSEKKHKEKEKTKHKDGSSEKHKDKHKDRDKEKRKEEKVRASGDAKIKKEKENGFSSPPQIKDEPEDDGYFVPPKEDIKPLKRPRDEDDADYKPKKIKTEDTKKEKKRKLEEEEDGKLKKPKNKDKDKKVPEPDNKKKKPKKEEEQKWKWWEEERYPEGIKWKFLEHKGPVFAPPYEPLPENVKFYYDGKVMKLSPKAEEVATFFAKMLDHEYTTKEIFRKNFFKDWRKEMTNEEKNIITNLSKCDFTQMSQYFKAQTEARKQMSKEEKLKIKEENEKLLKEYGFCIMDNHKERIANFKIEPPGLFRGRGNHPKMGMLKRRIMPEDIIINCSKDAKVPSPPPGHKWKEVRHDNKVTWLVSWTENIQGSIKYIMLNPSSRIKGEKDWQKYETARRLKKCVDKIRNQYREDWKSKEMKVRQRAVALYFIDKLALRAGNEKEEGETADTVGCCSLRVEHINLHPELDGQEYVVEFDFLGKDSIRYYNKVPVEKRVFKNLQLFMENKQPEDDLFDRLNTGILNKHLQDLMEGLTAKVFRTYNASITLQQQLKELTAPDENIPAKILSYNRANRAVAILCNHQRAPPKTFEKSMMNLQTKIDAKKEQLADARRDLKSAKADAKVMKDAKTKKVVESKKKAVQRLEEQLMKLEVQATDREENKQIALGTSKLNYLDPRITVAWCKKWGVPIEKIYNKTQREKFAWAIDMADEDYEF

[11] = system: HGC-27; test: Antiproliferative activity against human HGC-27 cells assessed as cell viability at <= 0.41 uM for 48 hrs by MTT assay; type: functional; conditions: up to 0.41 µM
[12] = system: RKO; test: Effect on cell morphology in human RKO cells assessed as appearance of round cells at 10 uM incubated for 48 hrs by giemsa staining based microscopic analysis; type: functional
[13] = system: HGC-27; test: Induction of apoptosis in human HGC-27 cells assessed as increase in caspase-3 activity at 3.3 uM incubated for 36 hrs by flow cytometry (Rvb= 9.39%); type: functional
[14] = system: RKO; test: Induction of mitochondrial membrane loss in human RKO at 1.1 to 10 uM and measured after 36 hrs by TMRE dye based flow cytometry; type: functional, cell-based; conditions: dose 1.1-10 µM, DDE = dose-dependent effect
[15] = system: HGC-27; test: Effect on cell morphology in human HGC-27 cells assessed as appearance of smaller cells at 10 uM incubated for 48 hrs by giemsa staining based microscopic analysis; type: functional
[16] = system: RKO; test: Induction of apoptosis in human RKO cells at 1.1 to 10 uM for 24 hrs by Annexin V-FITC/PI staining based flow cytometry; type: functional, cell-based; conditions: dose 1.1-10 µM
[17] = system: RKO; test: Effect on cell morphology in human RKO cells assessed as lose of adherence at 10 uM incubated for 48 hrs by giemsa staining based microscopic analysis; type: functional
[18] = system: HGC-27; test: Induction of apoptosis in human HGC-27 cells at 1.1 to 10 uM for 24 hrs by Annexin V-FITC/PI staining based flow cytometry; type: functional, cell-based; conditions: dose 1.1-10 µM
[19] = biological target: T1, Nuclear factor NF-kappa-B complex (Homo sapiens); test: Inhibition of NF-kappaB activation in human HT-29 cells assessed as reduction in TNFalpha-stimulated NF-kappaB nuclear translocation at 10 uM for 24 hrs followed by TNF- alpha stimulation for 1 hrs by DAPI staining based immunofluorescence assay; type: cell-based; conditions: time 25.0 hrs
[20] = system: HGC-27; test: Effect on cell morphology in human HGC-27 cells assessed as appearance of round cells at 10 uM incubated for 48 hrs by giemsa staining based microscopic analysis; type: functional
[21] = Acute toxicity in Kunming mouse assessed as lethal dose at 100 mg/kg,ip and measured upto 14 days; type: organism-based; conditions: in vivo, time < 14 day
[22] = system: HGC-27; test: Induction of cell cycle arrest in human HGC-27 cells assessed as accumulation at G2/M phase at 3.3 to 10 uM for 24 hrs by propidium iodide staining based flow cytometry; type: functional; conditions: dose 3.3-10 µM
[23] = system: HGC-27; test: Anti-migration activity against human HGC-27 cells assessed as decrease in cell migration rate at 0.37 uM for 48 hrs by crystalline violet staining based assay; type: functional
[24] = system: RKO; test: Antiproliferative activity against human RKO cells assessed as clone formation at 0.04 to 3.3 uM incubated for 4 days by crystal violet staining based analysis; type: functional, cell-based; conditions: dose 0.04-3.3 µM, time 4.0 day
[25] = system: HGC-27; test: Induction of apoptosis in human HGC-27 cells assessed as increase in cleaved caspase-3 expression at 1.1 to 10 uM incubated for 24 hrs by western blot assay; type: functional, cell-based; conditions: dose 1.1-10 µM
[26] = system: HGC-27; test: Induction of pro-apoptosis in human HGC-27 assessed as DNA breakdown by analyzing DNA ladder at 1.1 to 10 uM for 36 hrs by ethidium bromide staining based agarose gel electrophoresis; type: functional, cell-based; conditions: dose 1.1-10 µM
[27] = system: RKO; test: Induction of apoptosis in human RKO cells assessed as increase in cleaved caspase-9 expression at 1.1 to 10 uM incubated for 24 hrs by western blot assay; type: functional, cell-based; conditions: dose 1.1-10 µM

T1 sequence (P19838 whole entry, looked up): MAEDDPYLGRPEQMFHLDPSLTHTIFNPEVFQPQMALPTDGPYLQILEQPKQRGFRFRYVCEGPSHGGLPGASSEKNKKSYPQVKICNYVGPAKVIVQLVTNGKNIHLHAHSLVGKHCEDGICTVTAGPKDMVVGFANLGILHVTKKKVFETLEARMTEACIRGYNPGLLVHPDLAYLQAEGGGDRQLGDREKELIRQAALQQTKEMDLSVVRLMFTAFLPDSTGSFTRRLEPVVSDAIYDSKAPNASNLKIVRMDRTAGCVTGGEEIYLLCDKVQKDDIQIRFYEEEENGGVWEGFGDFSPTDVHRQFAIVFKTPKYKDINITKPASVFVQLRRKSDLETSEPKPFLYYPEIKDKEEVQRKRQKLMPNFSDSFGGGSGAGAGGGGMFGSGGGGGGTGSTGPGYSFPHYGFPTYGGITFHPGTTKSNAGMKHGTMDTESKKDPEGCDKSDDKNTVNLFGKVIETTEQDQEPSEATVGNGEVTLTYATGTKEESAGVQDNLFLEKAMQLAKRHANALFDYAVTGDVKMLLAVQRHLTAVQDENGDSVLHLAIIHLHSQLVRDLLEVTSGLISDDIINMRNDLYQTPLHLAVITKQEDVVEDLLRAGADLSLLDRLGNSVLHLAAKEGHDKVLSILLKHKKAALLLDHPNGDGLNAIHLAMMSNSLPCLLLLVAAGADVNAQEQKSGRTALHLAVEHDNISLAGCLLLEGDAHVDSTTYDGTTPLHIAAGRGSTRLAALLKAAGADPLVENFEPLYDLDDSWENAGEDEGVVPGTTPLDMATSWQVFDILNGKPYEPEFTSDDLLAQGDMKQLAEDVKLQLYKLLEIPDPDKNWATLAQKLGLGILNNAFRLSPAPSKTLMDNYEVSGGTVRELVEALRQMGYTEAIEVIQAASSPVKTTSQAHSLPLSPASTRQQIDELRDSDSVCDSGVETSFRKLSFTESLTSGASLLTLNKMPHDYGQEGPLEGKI
T1 sequence (Q00653 whole entry, looked up): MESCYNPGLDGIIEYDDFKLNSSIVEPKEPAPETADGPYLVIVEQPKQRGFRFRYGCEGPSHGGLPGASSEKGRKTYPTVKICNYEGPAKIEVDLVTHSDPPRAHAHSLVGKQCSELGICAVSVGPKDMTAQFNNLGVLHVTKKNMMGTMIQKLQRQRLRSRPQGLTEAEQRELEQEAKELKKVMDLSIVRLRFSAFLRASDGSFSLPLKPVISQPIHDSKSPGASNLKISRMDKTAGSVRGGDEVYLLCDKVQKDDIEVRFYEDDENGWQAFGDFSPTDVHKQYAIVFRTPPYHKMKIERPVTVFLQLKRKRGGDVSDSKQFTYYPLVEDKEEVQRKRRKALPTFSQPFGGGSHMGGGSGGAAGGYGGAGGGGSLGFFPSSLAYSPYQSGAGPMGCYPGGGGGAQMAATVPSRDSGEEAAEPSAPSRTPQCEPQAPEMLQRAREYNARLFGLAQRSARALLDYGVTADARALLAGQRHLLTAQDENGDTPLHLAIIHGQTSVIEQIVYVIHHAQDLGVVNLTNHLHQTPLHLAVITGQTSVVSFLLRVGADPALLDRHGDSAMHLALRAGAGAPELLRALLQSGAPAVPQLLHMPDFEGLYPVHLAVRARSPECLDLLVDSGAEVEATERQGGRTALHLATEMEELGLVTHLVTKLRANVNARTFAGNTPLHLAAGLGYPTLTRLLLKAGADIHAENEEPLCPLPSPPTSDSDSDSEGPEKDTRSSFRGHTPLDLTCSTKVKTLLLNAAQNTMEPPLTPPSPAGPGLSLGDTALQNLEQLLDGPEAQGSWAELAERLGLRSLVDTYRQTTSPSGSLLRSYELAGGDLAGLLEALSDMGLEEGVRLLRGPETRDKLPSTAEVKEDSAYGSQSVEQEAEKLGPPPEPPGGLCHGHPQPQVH
T1 sequence (Q04206 whole entry, looked up): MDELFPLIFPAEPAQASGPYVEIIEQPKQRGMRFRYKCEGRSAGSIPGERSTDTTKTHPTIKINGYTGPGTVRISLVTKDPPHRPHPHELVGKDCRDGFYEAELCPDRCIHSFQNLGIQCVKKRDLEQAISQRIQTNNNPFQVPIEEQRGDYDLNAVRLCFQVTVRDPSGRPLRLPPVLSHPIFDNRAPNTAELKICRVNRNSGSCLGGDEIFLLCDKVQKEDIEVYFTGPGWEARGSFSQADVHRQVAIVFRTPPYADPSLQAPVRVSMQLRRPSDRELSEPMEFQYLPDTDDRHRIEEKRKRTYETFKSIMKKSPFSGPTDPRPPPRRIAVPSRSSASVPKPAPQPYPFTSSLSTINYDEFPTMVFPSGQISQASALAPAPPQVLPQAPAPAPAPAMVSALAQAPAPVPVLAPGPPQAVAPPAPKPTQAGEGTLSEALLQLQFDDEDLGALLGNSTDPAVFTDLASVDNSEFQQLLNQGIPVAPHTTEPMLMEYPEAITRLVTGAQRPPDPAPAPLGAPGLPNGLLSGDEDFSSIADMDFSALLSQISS

Cc1c(Cl)cccc1Nc1ccc(F)cc1C(=O)NCc1ccc(O)c(O)c1
inhibition [1]: Active | inhibition [2]: Active | inhibition [3]: Active | Activity [4]: Active | Activity [5]: Active | pIC50 [6]: 4.77 | Activity [7]: Active | Activity [8]: Active | Activity [9]: Dde | inhibition [10]: 45.4% | Activity [11]: >80% | Activity [12]: Active | Activity [13]: 68.8% | Activity [14]: Dde | Activity [15]: Active | Activity [16]: Active | Activity [17]: Active | Activity [18]: Active | inhibition [19]: Active | Activity [20]: Active | LD50 at 336 h [21]: > 100 mg/kg | Activity [22]: Active | Activity [23]: Active | Activity [24]: Active | Activity [25]: Active | Activity [26]: Active | Activity [27]: Active
